“And” between values parts separate entries of the source, which are not always exact repeats. Equal entries are not always repeated. Inconclusive results and toxic doses are left out.
System: P388 leukemia ip, CD2F1 mice, survival T/C
Test: NCI In Vivo Anticancer Drug Screen. Data for tumor model P388 Leukemia (intraperitoneal) in CD2F1 (CDF1) mice
Details: endpoint: median survival time, higher = longer survival
Procedure, shortened: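 Mice carrying the transplanted tumor received test compound or vehicle. Survival was recorded in each group, and the value is the treated-group measurement divided by that of the vehicle-treated control group.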

[1] = dose: 25.0 mg/kg/injection, schedule: Q01DX009 (ip), vehicle: saline with Tween-80
[2] = dose: 50.0 mg/kg/injection, schedule: Q01DX009 (ip), vehicle: saline
[3] = dose: 100.0 mg/kg/injection, schedule: Q01DX009 (ip), vehicle: saline
[4] = dose: 200.0 mg/kg/injection, schedule: Q01DX009 (ip), vehicle: saline
[5] = dose: 25.0 mg/kg/injection, schedule: Q04DX003 (ip), vehicle: saline with Tween-80
[6] = dose: 50.0 mg/kg/injection, schedule: Q01DX009 (ip), vehicle: Klucel (hydroxypropylcellulose) (HPC)
[7] = dose: 100.0 mg/kg/injection, schedule: Q01DX009 (ip), vehicle: Klucel (hydroxypropylcellulose) (HPC)
[8] = dose: 50.0 mg/kg/injection, schedule: Q01DX005 (ip), vehicle: Klucel (hydroxypropylcellulose) (HPC)
[9] = dose: 100.0 mg/kg/injection, schedule: Q01DX005 (ip), vehicle: Klucel (hydroxypropylcellulose) (HPC)
[10] = dose: 50.0 mg/kg/injection, schedule: Q01DX005 (ip), vehicle: saline with Tween-80
[11] = dose: 100.0 mg/kg/injection, schedule: Q01DX005 (ip), vehicle: saline with Tween-80
[12] = dose: 200.0 mg/kg/injection, schedule: Q01DX005 (ip), vehicle: saline with Tween-80
[13] = dose: 400.0 mg/kg/injection, schedule: Q01DX009 (ip), vehicle: saline

## CN(C)CCNc1ccccc1[N+](=O)[O-]
dose: 12.5 mg/kg/injection, schedule: Q01DX001 (ip), vehicle: saline
  T/C: 100 % of control
dose: 25.0 mg/kg/injection, schedule: Q01DX001 (ip), vehicle: saline
  T/C: 100 % of control
dose: 50.0 mg/kg/injection, schedule: Q01DX001 (ip), vehicle: saline
  T/C: 100 % of control

## Cc1cc2c(c3ccccc13)C(=N/N=C(N)N)/C(=N/N=C(N)N)C2
dose: 6.25 mg/kg/injection, schedule: Q01DX009 (ip), vehicle: saline with Tween-80
  T/C: 101 % of control
dose: 12.5 mg/kg/injection, schedule: Q01DX009 (ip), vehicle: saline with Tween-80
  T/C: 108 % of control
dose: 25.0 mg/kg/injection, schedule: Q01DX001 (ip), vehicle: saline with Tween-80
  T/C: 105 % of control
[1]
  T/C: 101 % of control
dose: 50.0 mg/kg/injection, schedule: Q01DX001 (ip), vehicle: saline with Tween-80
  T/C: 97 % of control

## C=C(C)CC(N)C(=O)O (stereo unspecified)
dose: 50.0 mg/kg/injection, schedule: Q01DX005 (ip), vehicle: saline
  T/C: 103 % of control
dose: 100.0 mg/kg/injection, schedule: Q01DX005 (ip), vehicle: saline
  T/C: 100 % of control
dose: 200.0 mg/kg/injection, schedule: Q01DX005 (ip), vehicle: saline
  T/C: 99 % of control

## O=[N+]([O-])c1cc2c(cc1Br)C1C(C3C2C2(Cl)C(Cl)=C(Cl)C3(Cl)C2(Cl)Cl)C2(Cl)C(Cl)=C(Cl)C1(Cl)C2(Cl)Cl (stereo unspecified)
[2]
  T/C: 107 % of control
[3]
  T/C: 105 % of control
[4]
  T/C: 108 % of control

## CCCCOC(=O)c1ccc(NC(=O)Nc2ccccc2OC)cc1
[5]
  T/C: 91 % of control
dose: 50.0 mg/kg/injection, schedule: Q04DX003 (ip), vehicle: saline with Tween-80
  T/C: 87 % of control

## O=C1Nc2ccccc2/C1=N/N=C/c1ccccc1O
[6]
  T/C: 91 % of control
[7]
  T/C: 86 % of control

## CCOC(=O)c1cnc(-c2ccccc2)n(-c2ccccc2)c1=O
[8]
  T/C: 105 % of control
[9]
  T/C: 107 % of control

## O=[N+]([O-])c1ccc(O)c(CNCCCl)c1
dose: 25.0 mg/kg/injection, schedule: Q04DX002 (ip), vehicle: DMSO
  T/C: 95 % of control
dose: 50.0 mg/kg/injection, schedule: Q04DX002 (ip), vehicle: DMSO
  T/C: 98 % of control
dose: 100.0 mg/kg/injection, schedule: Q04DX002 (ip), vehicle: DMSO
  T/C: 89 % of control

## S=C(S)n1nc(-c2ccccc2)c(N=Nc2ccc(Cl)cc2Cl)c1-c1ccccc1
[10]
  T/C: 94 % of control
[11]
  T/C: 89 % of control
[12]
  T/C: 89 % of control

## CC(C)N(CCn1cnc2c(N)ncnc21)C(C)C
[8]
  T/C: 100 % of control
[9]
  T/C: 97 % of control

## COc1c2c(c(OC)c3c(OC)c4ccccc4c(OC)c13)CC(=O)CC2
dose: 1.56 mg/kg/injection, schedule: Q01DX009 (ip), vehicle: other
  T/C: 105 % of control
dose: 3.13 mg/kg/injection, schedule: Q01DX009 (ip), vehicle: other
  T/C: 101 % of control
dose: 6.25 mg/kg/injection, schedule: Q01DX009 (ip), vehicle: other
  T/C: 105 % of control
dose: 12.5 mg/kg/injection, schedule: Q01DX009 (ip), vehicle: other
  T/C: 101 % of control
dose: 25.0 mg/kg/injection, schedule: Q01DX009 (ip), vehicle: other
  T/C: 91 % of control

## Cc1ccn2ccnc2c1
dose: 50.0 mg/kg/injection, schedule: Q01DX009 (ip), vehicle: acetone
  T/C: 102 % of control
dose: 100.0 mg/kg/injection, schedule: Q01DX009 (ip), vehicle: acetone
  T/C: 113 % of control

## COc1ccc([P+](CCN2C(=O)c3ccccc3C2=O)(c2ccc(OC)cc2)c2ccc(OC)cc2)cc1
dose: 0.78 mg/kg/injection, schedule: Q01DX009 (ip), vehicle: water
  T/C: 121 % of control
dose: 1.56 mg/kg/injection, schedule: Q01DX009 (ip), vehicle: water
  T/C: 114 % of control
dose: 2.7 mg/kg/injection, schedule: Q01DX009 (ip), vehicle: water
  T/C: 116 % of control
dose: 3.13 mg/kg/injection, schedule: Q01DX009 (ip), vehicle: water
  T/C: 121 % of control
dose: 12.5 mg/kg/injection, schedule: Q01DX009 (ip), vehicle: water
  T/C: 92 % of control

## CC(N)C(O)c1ccc(O)cc1 (stereo unspecified)
[2]
  T/C: 102 % of control and 108 % of control
[3]
  T/C: 101 % of control
[4]
  T/C: 101 % of control and 108 % of control
[13]
  T/C: 87 % of control and 89 % of control

## O=c1[nH]c2ccccc2c(=O)n1CCCCCCN1CCN(c2cccc(Cl)c2)CC1
[6]
  T/C: 96 % of control
[7]
  T/C: 105 % of control
dose: 200.0 mg/kg/injection, schedule: Q01DX009 (ip), vehicle: Klucel (hydroxypropylcellulose) (HPC)
  T/C: 100 % of control

## OCC(O)C(O)C1[O][Sb][O]C1CO (stereo unspecified)
[10]
  T/C: 100 % of control and 101 % of control
[11]
  T/C: 96 % of control and 100 % of control and 104 % of control
[12]
  T/C: 100 % of control and 96 % of control and 104 % of control

## Cc1ccc(C[N+](C)(C)CCCCCOc2c(Br)cc(Br)cc2Br)o1
dose: 3.13 mg/kg/injection, schedule: Q04DX003 (ip), vehicle: Klucel (hydroxypropylcellulose) (HPC)
  T/C: 101 % of control
dose: 6.25 mg/kg/injection, schedule: Q04DX003 (ip), vehicle: Klucel (hydroxypropylcellulose) (HPC)
  T/C: 94 % of control
dose: 12.5 mg/kg/injection, schedule: Q04DX003 (ip), vehicle: Klucel (hydroxypropylcellulose) (HPC)
  T/C: 98 % of control and 106 % of control

## CC1(CNC(=O)C(=O)NCC2(C)CO2)CO1 (stereo unspecified)
dose: 6.25 mg/kg/injection, schedule: Q04DX003 (ip), vehicle: saline with Tween-80
  T/C: 90 % of control
dose: 17.5 mg/kg/injection, schedule: Q04DX003 (ip), vehicle: saline with Tween-80
  T/C: 109 % of control
[1]
  T/C: 150 % of control
[5]
  T/C: 122 % of control
dose: 50.0 mg/kg/injection, schedule: Q01DX009 (ip), vehicle: saline with Tween-80
  T/C: 172 % of control
dose: 100.0 mg/kg/injection, schedule: Q01DX009 (ip), vehicle: saline with Tween-80
  T/C: 186 % of control
dose: 100.0 mg/kg/injection, schedule: Q04DX003 (ip), vehicle: saline with Tween-80
  T/C: 168 % of control
dose: 132.0 mg/kg/injection, schedule: Q04DX003 (ip), vehicle: saline with Tween-80
  T/C: 172 % of control
dose: 200.0 mg/kg/injection, schedule: Q04DX003 (ip), vehicle: saline with Tween-80
  T/C: 163 % of control and 195 % of control
dose: 300.0 mg/kg/injection, schedule: Q04DX003 (ip), vehicle: saline with Tween-80
  T/C: 195 % of control
dose: 400.0 mg/kg/injection, schedule: Q04DX003 (ip), vehicle: saline with Tween-80
  T/C: 109 % of control

## N#CC(O)COc1nsnc1N1CCOCC1 (stereo unspecified)
dose: 6.25 mg/kg/injection, schedule: Q01DX009 (ip), vehicle: Klucel (hydroxypropylcellulose) (HPC)
  T/C: 108 % of control
dose: 12.5 mg/kg/injection, schedule: Q01DX009 (ip), vehicle: Klucel (hydroxypropylcellulose) (HPC)
  T/C: 106 % of control
dose: 25.0 mg/kg/injection, schedule: Q01DX009 (ip), vehicle: Klucel (hydroxypropylcellulose) (HPC)
  T/C: 105 % of control

## O=C1OI(Cl)c2ccccc21
dose: 60.0 mg/kg/injection, schedule: Q01DX005 (ip), vehicle: saline with Tween-80
  T/C: 104 % of control
dose: 120.0 mg/kg/injection, schedule: Q01DX005 (ip), vehicle: saline with Tween-80
  T/C: 104 % of control

## NC1=NS(=O)(=O)Nc2nn(-c3ccccc3)nc21
dose: 100.0 mg/kg/injection, schedule: Q01DX001 (ip), vehicle: saline with Tween-80
  T/C: 107 % of control
dose: 200.0 mg/kg/injection, schedule: Q01DX001 (ip), vehicle: saline with Tween-80
  T/C: 101 % of control
dose: 400.0 mg/kg/injection, schedule: Q01DX001 (ip), vehicle: saline with Tween-80
  T/C: 99 % of control

## COc1ccc2c3c([nH]c2c1[N+](=O)[O-])C(C)N(C)CC3 (stereo unspecified)
dose: 8.5 mg/kg/injection, schedule: Q01DX005 (ip), vehicle: Klucel (hydroxypropylcellulose) (HPC)
  T/C: 107 % of control
dose: 17.0 mg/kg/injection, schedule: Q01DX005 (ip), vehicle: Klucel (hydroxypropylcellulose) (HPC)
  T/C: 101 % of control

## OCC12COCN1COC2
[2]
  T/C: 106 % of control and 92 % of control
[3]
  T/C: 106 % of control and 111 % of control
[4]
  T/C: 108 % of control and 118 % of control
[13]
  T/C: 123 % of control

## O=C1/C(=C\c2ccccc2)C2OCC=C3CN4CCC56c7ccccc7N1C5C2C3CC46 (stereo unspecified)
dose: 7.5 mg/kg/injection, schedule: Q01DX005 (ip), vehicle: saline with Tween-80
  T/C: 106 % of control
dose: 15.0 mg/kg/injection, schedule: Q01DX005 (ip), vehicle: saline with Tween-80
  T/C: 108 % of control
dose: 30.0 mg/kg/injection, schedule: Q01DX005 (ip), vehicle: saline with Tween-80
  T/C: 99 % of control

Source: PubChem BioAssay AID330 (DTP/NCI, 2004)
